Numbers after ± are expanded uncertainties.
Assay: xn = mol fraction of the nth substance listed
Details: 100 kPa, Liquid; for speed of sound: Frequency=5 MHz, Pulse-echo method; for mass density: Vibrating tube method

OCCCCCO [1,5-pentanediol] + O
Details | mass density [kg/m3] | speed of sound [m/s]
318.15 K, x1 = 0.005 | 989.65 ± 0.52 | –
318.15 K, x1 = 0.0101 | 989.41 ± 1 | –
318.15 K, x1 = 0.0196 | 989.31 ± 1 | –
318.15 K, x1 = 0.0251 | 989.53 ± 1 | –
318.15 K, x1 = 0.0304 | 989.77 ± 1 | –
318.15 K, x1 = 0.05 | 990.21 ± 1 | –
318.15 K, x1 = 0.0769 | 990.38 ± 1 | –
318.15 K, x1 = 0.1002 | 990.62 ± 1.1 | –
318.15 K, x1 = 0.1438 | 990.42 ± 1.1 | –
318.15 K, x1 = 0.1836 | – | 1646.1 ± 1.3
318.15 K, x1 = 0.1845 | 989.72 ± 1.1 | –
318.15 K, x1 = 0.1877 | – | 1645.8 ± 1.3
318.15 K, x1 = 0.1923 | – | 1645.5 ± 1.3
318.15 K, x1 = 0.1928 | – | 1645.4 ± 1.3
318.15 K, x1 = 0.1977 | – | 1645 ± 1.3
318.15 K, x1 = 0.2017 | – | 1644.7 ± 1.3
318.15 K, x1 = 0.2025 | – | 1644.6 ± 1.3
318.15 K, x1 = 0.2049 | – | 1644.4 ± 1.3
318.15 K, x1 = 0.2132 | – | 1643.6 ± 1.3
318.15 K, x1 = 0.2224 | – | 1642.7 ± 1.3
318.15 K, x1 = 0.2331 | – | 1641.6 ± 1.3
318.15 K, x1 = 0.2482 | – | 1640 ± 1.3
318.15 K, x1 = 0.2503 | 988.52 ± 1.2 | –
318.15 K, x1 = 0.2698 | – | 1637.7 ± 1.4
318.15 K, x1 = 0.2859 | – | 1635.9 ± 1.4
318.15 K, x1 = 0.2955 | – | 1634.9 ± 1.4
318.15 K, x1 = 0.3 | 987.37 ± 1.2 | –
318.15 K, x1 = 0.312 | – | 1633 ± 1.4
318.15 K, x1 = 0.3191 | – | 1632.2 ± 1.4
318.15 K, x1 = 0.3343 | 986.64 ± 1.3 | –
318.15 K, x1 = 0.3352 | – | 1630.3 ± 1.4
318.15 K, x1 = 0.3499 | – | 1628.6 ± 1.4
318.15 K, x1 = 0.3678 | – | 1626.5 ± 1.4
318.15 K, x1 = 0.3857 | – | 1624.3 ± 1.5
318.15 K, x1 = 0.4054 | – | 1621.9 ± 1.5
318.15 K, x1 = 0.4171 | 985.02 ± 1.4 | –
318.15 K, x1 = 0.4216 | – | 1619.8 ± 1.5
318.15 K, x1 = 0.4392 | – | 1617.6 ± 1.5
318.15 K, x1 = 0.4494 | – | 1616.3 ± 1.5
318.15 K, x1 = 0.454 | 984.19 ± 1.4 | –
318.15 K, x1 = 0.4703 | – | 1613.5 ± 1.6
318.15 K, x1 = 0.4894 | – | 1611 ± 1.6
318.15 K, x1 = 0.5003 | 983.3 ± 1.5 | –
318.15 K, x1 = 0.5038 | – | 1609.1 ± 1.6
318.15 K, x1 = 0.5212 | – | 1606.7 ± 1.6
318.15 K, x1 = 0.5362 | 982.6 ± 1.5 | –
318.15 K, x1 = 0.5442 | – | 1603.6 ± 1.6
318.15 K, x1 = 0.565 | – | 1600.8 ± 1.7
318.15 K, x1 = 0.5841 | – | 1598.3 ± 1.7
318.15 K, x1 = 0.6039 | – | 1595.7 ± 1.7
318.15 K, x1 = 0.6177 | 981.2 ± 1.7 | –
318.15 K, x1 = 0.6258 | – | 1592.8 ± 1.8
318.15 K, x1 = 0.6425 | – | 1590.6 ± 1.8
318.15 K, x1 = 0.6478 | 980.7 ± 1.7 | –
318.15 K, x1 = 0.6602 | – | 1588.3 ± 1.8
318.15 K, x1 = 0.6789 | – | 1586 ± 1.8
318.15 K, x1 = 0.6988 | – | 1583.5 ± 1.9
318.15 K, x1 = 0.7025 | 979.9 ± 1.8 | –
318.15 K, x1 = 0.7197 | – | 1581 ± 1.9
318.15 K, x1 = 0.7436 | – | 1578.2 ± 1.9
318.15 K, x1 = 0.7504 | 979.2 ± 1.9 | –
318.15 K, x1 = 0.7664 | – | 1575.6 ± 1.9
318.15 K, x1 = 0.7919 | – | 1572.7 ± 2
318.15 K, x1 = 0.7927 | 978.5 ± 2 | –
318.15 K, x1 = 0.8187 | – | 1569.8 ± 2
318.15 K, x1 = 0.8416 | – | 1567.3 ± 2.1
318.15 K, x1 = 0.8605 | 977.4 ± 2.1 | –
318.15 K, x1 = 0.864 | – | 1564.8 ± 2.1
318.15 K, x1 = 0.8864 | – | 1562.4 ± 2.1
318.15 K, x1 = 0.9004 | 976.7 ± 2.2 | –
318.15 K, x1 = 0.9086 | – | 1560 ± 2.2
318.15 K, x1 = 0.926 | – | 1558 ± 2.2
318.15 K, x1 = 0.9413 | – | 1556.3 ± 2.2
318.15 K, x1 = 0.9496 | 975.8 ± 2.2 | –
318.15 K, x1 = 0.9573 | – | 1554.4 ± 2.2
318.15 K, x1 = 0.971 | – | 1552.7 ± 2.3
318.15 K, x1 = 0.9808 | – | 1551.5 ± 2.3
318.15 K, x1 = 0.9903 | – | 1550.3 ± 2.3
318.15 K, x1 = 0.9952 | – | 1549.7 ± 2.3
318.15 K, x1 = 1 | 974.9 ± 2.1 | 1549 ± 2.3
323.15 K, x1 = 0.005 | 987.42 ± 0.52 | –
323.15 K, x1 = 0.0101 | 987.12 ± 1 | –
323.15 K, x1 = 0.0196 | 986.93 ± 1 | –
323.15 K, x1 = 0.0251 | 987.06 ± 1 | –
323.15 K, x1 = 0.0304 | 987.26 ± 1 | –
323.15 K, x1 = 0.05 | 987.48 ± 1 | –
323.15 K, x1 = 0.0769 | 987.42 ± 1 | –
323.15 K, x1 = 0.1002 | 987.52 ± 1.1 | –
323.15 K, x1 = 0.1438 | 987.17 ± 1.1 | –
323.15 K, x1 = 0.1845 | 986.36 ± 1.1 | –
323.15 K, x1 = 0.2503 | 985.12 ± 1.2 | –
323.15 K, x1 = 0.3 | 983.93 ± 1.2 | –
323.15 K, x1 = 0.3343 | 983.17 ± 1.3 | –
323.15 K, x1 = 0.4171 | 981.65 ± 1.4 | –
323.15 K, x1 = 0.454 | 980.83 ± 1.4 | –
323.15 K, x1 = 0.5003 | 980 ± 1.5 | –
323.15 K, x1 = 0.5362 | 979.3 ± 1.5 | –
323.15 K, x1 = 0.6177 | 978 ± 1.7 | –
323.15 K, x1 = 0.6478 | 977.5 ± 1.7 | –
323.15 K, x1 = 0.7025 | 976.7 ± 1.8 | –
323.15 K, x1 = 0.7504 | 976.1 ± 1.9 | –
323.15 K, x1 = 0.7927 | 975.4 ± 2 | –
323.15 K, x1 = 0.8605 | 974.4 ± 2.1 | –
323.15 K, x1 = 0.9004 | 973.7 ± 2.2 | –
323.15 K, x1 = 0.9496 | 972.8 ± 2.2 | –
323.15 K, x1 = 1 | 971.9 ± 2.1 | –
328.15 K, x1 = 0.005 | 985.03 ± 0.52 | –
328.15 K, x1 = 0.0101 | 984.7 ± 1 | –
328.15 K, x1 = 0.0196 | 984.4 ± 1 | –
328.15 K, x1 = 0.0251 | 984.49 ± 1 | –
328.15 K, x1 = 0.0304 | 984.6 ± 1 | –
328.15 K, x1 = 0.05 | 984.62 ± 1 | –
328.15 K, x1 = 0.0769 | 984.36 ± 1 | –
328.15 K, x1 = 0.1002 | 984.33 ± 1 | –
328.15 K, x1 = 0.1438 | 983.84 ± 1.1 | –
328.15 K, x1 = 0.1845 | 982.94 ± 1.1 | –
328.15 K, x1 = 0.2503 | 981.66 ± 1.2 | –
328.15 K, x1 = 0.3 | 980.46 ± 1.2 | –
328.15 K, x1 = 0.3343 | 979.7 ± 1.2 | –
328.15 K, x1 = 0.4171 | 978.26 ± 1.4 | –
328.15 K, x1 = 0.454 | 977.43 ± 1.4 | –
328.15 K, x1 = 0.5003 | 976.6 ± 1.5 | –
328.15 K, x1 = 0.5362 | 976 ± 1.5 | –
328.15 K, x1 = 0.6177 | 974.8 ± 1.7 | –
328.15 K, x1 = 0.6478 | 974.3 ± 1.7 | –
328.15 K, x1 = 0.7025 | 973.6 ± 1.8 | –
328.15 K, x1 = 0.7504 | 972.9 ± 1.9 | –
328.15 K, x1 = 0.7927 | 972.3 ± 2 | –
328.15 K, x1 = 0.8605 | 971.3 ± 2.1 | –
328.15 K, x1 = 0.9004 | 970.7 ± 2.2 | –
328.15 K, x1 = 0.9496 | 969.9 ± 2.2 | –
328.15 K, x1 = 1 | 969 ± 2.1 | –
333.15 K, x1 = 0.005 | 982.48 ± 0.52 | –
333.15 K, x1 = 0.0101 | 982.09 ± 1 | –
333.15 K, x1 = 0.0196 | 981.69 ± 1 | –
333.15 K, x1 = 0.0251 | 981.7 ± 1 | –
333.15 K, x1 = 0.0304 | 981.74 ± 1 | –
333.15 K, x1 = 0.05 | 981.63 ± 1 | –
333.15 K, x1 = 0.0769 | 981.19 ± 1 | –
333.15 K, x1 = 0.1002 | 981.04 ± 1 | –
333.15 K, x1 = 0.1438 | 980.43 ± 1.1 | –
333.15 K, x1 = 0.1845 | 979.44 ± 1.1 | –
333.15 K, x1 = 0.2503 | 978.15 ± 1.2 | –
333.15 K, x1 = 0.3 | 976.99 ± 1.2 | –
333.15 K, x1 = 0.3343 | 976.21 ± 1.2 | –
333.15 K, x1 = 0.4171 | 974.8 ± 1.4 | –
333.15 K, x1 = 0.454 | 973.98 ± 1.4 | –
333.15 K, x1 = 0.5003 | 973.2 ± 1.5 | –
333.15 K, x1 = 0.5362 | 972.6 ± 1.5 | –
333.15 K, x1 = 0.6177 | 971.5 ± 1.7 | –
333.15 K, x1 = 0.6478 | 971 ± 1.7 | –
333.15 K, x1 = 0.7025 | 970.3 ± 1.8 | –
333.15 K, x1 = 0.7504 | 969.7 ± 1.9 | –
333.15 K, x1 = 0.7927 | 969.1 ± 2 | –
333.15 K, x1 = 0.8605 | 968.1 ± 2.1 | –
333.15 K, x1 = 0.9004 | 967.6 ± 2.2 | –
333.15 K, x1 = 0.9496 | 966.7 ± 2.2 | –
333.15 K, x1 = 1 | 965.9 ± 2.1 | –

— the NIST ThermoML archive (doi:10.1016/j.jct.2017.06.001)
